Experimental data taken from patent publication US20020077289A1, “Angiostatin and endostatin binding proteins and methods of use” (priority 2000, published 2002).
Like-named read-outs stand apart in the source and are kept apart here. Bridges are numbered along the chain shown (N, C = ends). Where no end group is shown, it is not given here.

Experiments:
[1] = test system: recombinant human Angiostatin protein; assay: Phage display panning on Angiostatin protein; format: binding
Description: (§1) The Ph.D.-7 phage display library (New England BioLabs Cat #8100), a combinatorial library consisting of random peptide 7-mers, was screened for 7 amino acid binding peptides. The Ph.D.-7 phage display library consists of linear 7-mer peptides fused to the pIII coat protein of M13 via a Gly-Gly-Gly-Ser flexible linker. The library contains 2.8×10^9 independent clones. The Ph.D. library is useful for identifying targets requiring binding elements concentrated in a short stretch of amino acids.
The Ph.D.-C7C library (New England BioLabs Cat # 8120) is a combinatorial library consisting of random peptide 7-mers flanked by cysteine residues that under non-denaturing conditions are disulfide bonded resulting in the display of cyclized peptides. In non-reducing conditions, the cysteines form a disulfide bond resulting in each peptide being constrained in a disulfide loop. The library contains 3.7×10^9 independent clones that, like the Ph.D.-7 library, result in peptides fused to the pIII coat protein of M13 via a Gly-Gly-Gly-Ser flexible linker. Constrained libraries are useful in the identification of structural epitopes. The Ph.D.-C7C library was screened for the binding of 7 amino acid cyclized binding peptides.
The phage display libraries were screened following the manufacturers' recommendations. […]

HUVEC microfilaments = assay: Fluorescent staining of formalin fixed endothelial cells with Alexa 488-labeled rhEndostatin; format: cell-based, human; details: 50-fold molar excess (100 μM) of peptide; 40 μg/ml (2 μM) Alexa-rhEndostatin
Description: (A), HUVECs, (B), HAECs and (C), HMVECs were incubated in the presence of 40 micrograms per milliliter (μg/ml) Alexa 488-labeled rhEndostatin and photographed at 100× magnification under Alexa 488 (green) excitation wavelength. (D) and (E), HUVECs were incubated simultaneously in anti-tropomyosin TM311 ascites fluid and 40 micrograms per milliliter (μg/ml) Alexa 488-labeled rhEndostatin followed by incubation in Alexa 594 conjugated goat anti-mouse IgG (H+L). The same field was photographed under Alexa 488 (green) and Alexa 594 (red) excitation wavelengths at 100× magnification.
HUVECs were incubated in the presence of 40 micrograms per milliliter (μg/ml) Alexa 488-labeled rhEndostatin alone (A), or in the presence of a 50-fold molar excess of control peptide (B), or E37 peptide (C). Cells were photographed using the same exposure times at 100x magnification under Alexa 488 (green) excitation wavelength.
To detect the binding of Alexa-labeled rhEndostatin 1×10^4 HUVEC, HMVEC and HAECs were plated on 1.5% gelatin coated Nalge Nunc Lab Tek II chamber slides (Naperville, Ill.) and fixed in 10% neutral buffered formalin followed by a methanol wash. The chamber slides were incubated in PBS/1% calf serum containing 40 μg/ml (2 μM) of Alexa 488-labeled rhEndostatin (Narum et al., manuscript in preparation) for 1 hr at room temperature. The slides were washed in PBS, coverslips mounted using fluorescent mounting media (Kirkegaard and Perry Laboratories, Gaithersburg, Md.) and cells photographed under Alexa 488 excitation wavelength. Co-localization studies were performed as above except cells were incubated in PBS/1% calf serum containing 1:200 mouse anti-tropomyosin TM311 (Sigma, St. Louis, Miss.) and 40 μg/ml of Alexa 488-labeled rhEndostatin followed by incubation with goat anti-mouse IgG (H+L) conjugated to Alexa 594 (Molecular Probes, Eugene, Oregon). The same fields were photographed under Alexa 488 and Alexa 594 wavelengths. […]

B16-BL6 melanoma cells = assay: B16-BL6 experimental metastasis assay; format: in vivo, C57BL/6J mice
Description: C57BL/6J mice were injected via the tail vein with 5×10^4 B16-BL6 melanoma cells on day 0. On day 3, groups of five mice received daily subcutaneous doses of either buffer control, 1.5 nmol (1.5 mg/kg/day) of rhEndostatin in combination with 0, 15, 75 or 375 nmol of control or E37 peptide, or control or E37 peptide alone for eleven days. All mice were sacrificed on day 14, and the number of pulmonary surface metastases in each animal counted. Error bars indicate standard deviation of the mean.
C57BL/6J mice (n=8) were injected intravenously (i.v.) with 5×10^4 B16-BL6 cells/mouse. Three days later treatment commenced. 100 μl of citrate-phosphate buffer (66 mM Sodium Phosphate, 17 mM Citric acid, 59 mM NaCl pH 6.2) containing 1.5 nmol of rhEndostatin and 100 μl of PBS containing either 0, 15, 75 or 375 nmol of control or E37 peptide were mixed and injected subcutaneously (s.c.) daily for 11 days. All mice were then sacrificed, their lungs removed and the number of surface metastases counted. Results were analyzed for statistical significance using the 2-tailed Student's t-test.
The following experiment was conducted to determine the interaction of E37 peptide and Endostatin protein. Briefly, the B16BL6 experimental metastasis assay, as known to those of skill in the art and further described in International Patent Application number PCT/US99/11418, was performed as follows. 5×10^4 B16-BL6 cells in 200 μl of PBS were injected into C57BL/6J mice via the tail vein. Three days post injection treatment was started. The injection received by eight groups of mice were: 1) citrate phosphate/PBS buffer, 2) ^30 μg Endostatin protein (in 100 μl PBS), 3) 30 μg Endostatin protein (in 200 μl PBS), 4) 30 μg Endostatin protein plus 50 times molar excess of control peptide (in 200 μl PBS), 5) 30 μg Endostatin protein plus 250 times molar excess of control peptide (in 200 μl PBS), 6) 30 μg Endostatin protein plus 10 times molar excess of E37 peptide (in 200 μl PBS), 7) 30 μg Endostatin protein plus 50 times molar excess of E37 peptide (in 200 μl PBS), and 8) 30 μg Endostatin protein plus 250 times molar excess of E37 peptide (in 200 μl PBS). Doses were administered daily for eleven days posterior to the thoracic cavity subcutaneously. All mice were sacrificed, the lungs removed and the number of surface metastases in each animal were counted under a stereo microscope.

[2] = biological target: T1, recombinant human Endostatin protein (Homo sapiens, UniProt P39060); assay: Phage display panning on Endostatin protein; format: binding
T1 construct: recombinant human Angiostatin protein, K1-4 protein, or recombinant human Endostatin protein were coated overnight; made in house; host or cells: Pichia pastoris
T1 sequence (P39060 1572-1754 limits assumed): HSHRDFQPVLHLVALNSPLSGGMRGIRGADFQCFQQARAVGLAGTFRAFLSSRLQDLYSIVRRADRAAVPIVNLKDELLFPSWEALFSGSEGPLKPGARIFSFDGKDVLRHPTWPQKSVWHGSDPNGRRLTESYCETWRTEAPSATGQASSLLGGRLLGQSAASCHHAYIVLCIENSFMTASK
Description: The Ph.D.-C7C, a disulfide constrained 7-mer phage-display library (New England BioLabs, Beverly, Mass.), was screened as recommended by the manufacturer. Following a third round of amplification individual phage were isolated and the peptide sequences deduced by DNA sequencing.
as §1
The Ph.D.-C7C library (New England BioLabs Cat # 8120) is a combinatorial library consisting of random peptide 7-mers flanked by cysteine residues that under non-denaturing conditions are disulfide bonded resulting in the display of cyclized peptides. In non-reducing conditions, the cysteines form a disulfide bond resulting in each peptide being constrained in a disulfide loop. The library contains 3.7×10^9 independent clones that, like the Ph.D.-7 library, result in peptides fused to the pIII coat protein of M13 via a Gly-Gly-Gly-Ser flexible linker. […]

[3] = biological target: recombinant human tropomyosin isoform 3 (human); assay: SPR (BIAcore 3000), rhTM3 immobilized, steady state model

Sequence of recombinant human Angiostatin protein (P00747 103-352 limits assumed): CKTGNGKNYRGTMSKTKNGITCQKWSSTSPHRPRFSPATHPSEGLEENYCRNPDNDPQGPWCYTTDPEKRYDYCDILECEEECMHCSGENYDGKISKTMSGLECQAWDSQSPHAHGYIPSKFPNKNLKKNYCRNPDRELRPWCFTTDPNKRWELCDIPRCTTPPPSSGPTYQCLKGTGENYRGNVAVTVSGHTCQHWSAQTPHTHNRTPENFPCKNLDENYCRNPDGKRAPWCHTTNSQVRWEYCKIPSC

H A I Y P R H G G G S (HAIYPRHGGGS) [Peptide A10]
binding to Angiostatin protein (phage display selection) [1]: binds

CTHWWHKRCGGGS (disulfide 1-9 (inferred)) [E37 peptide]
inhibition of binding of Alexa-labeled rhEndostatin to HUVEC microfilaments (HUVEC microfilaments): inhibited the binding of rhEndostatin to HUVEC microfilaments
decrease in the anti-tumor activity of rhEndostatin (B16-BL6 melanoma cells; co-injection of 1.5 nmol rhEndostatin with 15 nmol E37 peptide): 11%
decrease in the anti-tumor activity of rhEndostatin (B16-BL6 melanoma cells; co-injection of 1.5 nmol rhEndostatin with 75 nmol E37 peptide): 30.5%
decrease in the anti-tumor activity of rhEndostatin (B16-BL6 melanoma cells; co-injection of 1.5 nmol rhEndostatin with 375 nmol E37 peptide): 84.5%
number of metastatic lesions on the lungs versus control group (B16-BL6 melanoma cells; up to 375 nmol/day E37 peptide in the absence of rhEndostatin): not statistically different from that of the control group
binding to Endostatin protein (phage display selection) [2]: binds
binding to Endostatin protein (phage display selection) ([2]; listed as E37): found to bind rhEndostatin

B1: recombinant human Endostatin protein (protein)
chain: T1 sequence (P39060 1572-1754 limits assumed)
modifications: Alexa Fluor 488 label in some experiments
Kd [3]: 100 µM
